Our source for the TGI values is PubChem BioAssay (NCI).

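A five-concentration, 48-hour dose response in 96-well plates underlies each endpoint, interpolated linearly between surrounding concentrations. TGI is the concentration that stops growth completely.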 Some results are limits rather than exact numbers.

Some test systems named below: A549 NSCLC; ACHN renal; COLO 205 colon; HCC-2998 colon; HCT-116 colon; HL-60(TB) leukemia; HOP-62 NSCLC; LOX IMVI melanoma; MCF7 breast; MDA-N; NCI-H23 lung; OVCAR-5 ovarian; OVCAR-8 ovarian; SK-MEL-5 melanoma; SR leukemia; SW-620 colon; TK-10 renal.
Holding throughout (assay): NCI-60 cell line screen, 48 h

For the compound `O=C1C(Cl)=CC2(C=C1Cl)CCN=c1c(O)c3c(c(O)c12)=NC=N3`, the TGI is more than 100 µM in the experiment with A549 NSCLC; more than 100 µM in the experiment with ACHN renal; 46.7 µM in the experiment with COLO 205 colon; more than 100 µM in the experiment on HCC-2998 colon; 67.5 µM with HCT-116 colon; 53.6 µM in the experiment with HL-60(TB) leukemia. Besides, the TGI in the experiment with HOP-62 NSCLC is more than 100 µM; with LOX IMVI melanoma, 50.4 µM; in the experiment with MCF7 breast, 48.9 µM; in the experiment with MDA-N, 33.6 µM; in the experiment on NCI-H23 lung, 82.5 µM; in the experiment with OVCAR-5 ovarian it was more than 100 µM. Further, the TGI in the experiment on OVCAR-8 ovarian is more than 100 µM; with SK-MEL-5 melanoma, 30.8 µM; in the experiment with SR leukemia, 36.5 µM; in the experiment on SW-620 colon it was more than 100 µM; in the experiment with TK-10 renal it was more than 100 µM.

In the case of `O=C(O)CCC(NC(=O)c1ccc(Nc2nc3ccc(C(F)(F)F)cc3nc2C(=O)O)cc1)C(=O)O` (stereo unspecified), the TGI with A549 NSCLC, with ACHN renal, with COLO 205 colon, in the experiment with HCC-2998 colon, with HCT-116 colon and in the experiment with HL-60(TB) leukemia was more than 100 µM throughout. In addition, the TGI with HOP-62 NSCLC, with LOX IMVI melanoma, in the experiment on MCF7 breast, in the experiment on MDA-N, in the experiment with NCI-H23 lung and in the experiment with OVCAR-5 ovarian was more than 100 µM each time. Also, the TGI in the experiment on OVCAR-8 ovarian, in the experiment on SK-MEL-5 melanoma, in the experiment on SR leukemia, in the experiment on SW-620 colon and with TK-10 renal was more than 100 µM in each case.

Consider `CC1(c2ccc(Cl)cc2)C=C(c2ccc(Cl)cc2)C(C#N)=C(C(C#N)C#N)N1` (stereo unspecified), for which the TGI came to 42.2 µM in the experiment with A549 NSCLC; 30.5 µM in the experiment on ACHN renal; 32.8 µM in the experiment on COLO 205 colon; 31.3 µM with HCC-2998 colon; 27.3 µM in the experiment on HCT-116 colon; 41.1 µM with HL-60(TB) leukemia. Moreover, the TGI is 31.9 µM in the experiment with HOP-62 NSCLC; 32.3 µM in the experiment with LOX IMVI melanoma; 37.3 µM in the experiment on MCF7 breast; 31.8 µM in the experiment with MDA-N; 32.3 µM in the experiment on NCI-H23 lung; 33 µM with OVCAR-5 ovarian. The TGI is 30.7 µM with OVCAR-8 ovarian; 28.2 µM in the experiment on SK-MEL-5 melanoma; 73.8 µM in the experiment with SR leukemia; more than 100 µM in the experiment on SW-620 colon; 33.8 µM in the experiment with TK-10 renal.

In the case of `CCc1nc(N)nc(N)c1-c1ccc(N2CCOCC2)c(N=[N+]=[N-])c1`, the TGI with A549 NSCLC is more than 100 µM; with ACHN renal, more than 100 µM; in the experiment with COLO 205 colon, more than 100 µM; with HCC-2998 colon it was more than 100 µM; with HCT-116 colon it was more than 100 µM; with HL-60(TB) leukemia it was more than 79.2 µM. The TGI is more than 100 µM in the experiment on HOP-62 NSCLC; more than 100 µM with LOX IMVI melanoma; more than 100 µM in the experiment with MCF7 breast; more than 100 µM in the experiment with MDA-N; more than 83.7 µM in the experiment on NCI-H23 lung; more than 100 µM in the experiment with OVCAR-5 ovarian. The TGI in the experiment on OVCAR-8 ovarian is more than 100 µM; in the experiment on SK-MEL-5 melanoma, more than 100 µM; with SR leukemia, more than 80.9 µM; with SW-620 colon, more than 100 µM; with TK-10 renal, more than 100 µM.

Regarding `CCCCCC(=O)OC[n+]1cccc(-c2c(COC(=O)NC(C)C)c(COC(=O)NC(C)C)c3n2CCC3)c1`, the TGI in the experiment on A549 NSCLC, in the experiment on ACHN renal, in the experiment with COLO 205 colon, in the experiment with HCC-2998 colon, in the experiment with HCT-116 colon and in the experiment on HL-60(TB) leukemia was more than 100 µM throughout. In addition, the TGI with HOP-62 NSCLC, in the experiment on LOX IMVI melanoma, with MCF7 breast, with MDA-N, in the experiment on NCI-H23 lung and in the experiment on OVCAR-5 ovarian was more than 100 µM in each case. Moreover, the TGI is more than 100 µM in the experiment with OVCAR-8 ovarian; more than 100 µM in the experiment with SK-MEL-5 melanoma; more than 73.8 µM in the experiment with SR leukemia; more than 100 µM in the experiment on SW-620 colon; more than 100 µM in the experiment with TK-10 renal.

With `NS(=O)(=O)c1c(O)c2ccccc2oc1=O`, the TGI with A549 NSCLC, in the experiment with ACHN renal, in the experiment with COLO 205 colon, with HCC-2998 colon, in the experiment on HCT-116 colon and in the experiment on HL-60(TB) leukemia was more than 100 µM in each case. For the same compound, the TGI with HOP-62 NSCLC, in the experiment on LOX IMVI melanoma, with MCF7 breast, in the experiment on MDA-N, in the experiment with NCI-H23 lung and in the experiment with OVCAR-5 ovarian was more than 100 µM throughout. Also, the TGI with OVCAR-8 ovarian, with SK-MEL-5 melanoma, in the experiment with SR leukemia, with SW-620 colon and in the experiment with TK-10 renal was more than 100 µM in each case.

Consider `Cc1nc2ccccc2n1Cc1nnc(-c2ccccc2)o1`, for which the TGI in the experiment with A549 NSCLC, with ACHN renal, with COLO 205 colon, with HCC-2998 colon, in the experiment on HCT-116 colon and in the experiment on HL-60(TB) leukemia was more than 100 µM throughout. Also, the TGI in the experiment on HOP-62 NSCLC, in the experiment on LOX IMVI melanoma, with MCF7 breast, in the experiment with MDA-N, in the experiment with NCI-H23 lung and in the experiment on OVCAR-5 ovarian was more than 100 µM in each case. Moreover, the TGI with OVCAR-8 ovarian, in the experiment on SK-MEL-5 melanoma, with SR leukemia, in the experiment with SW-620 colon and with TK-10 renal was more than 100 µM each time.

For the compound `CC[C@@H]1CC[C@@H]2[C@H](CC[C@]3(C)[C@@H](O[N+](=O)[O-])CC[C@@H]23)[C@H]1C(C)=O`, the TGI in the experiment on A549 NSCLC is more than 100 µM; with ACHN renal, more than 100 µM; in the experiment with COLO 205 colon it was 24.4 µM; in the experiment with HCC-2998 colon it was more than 100 µM; in the experiment with HCT-116 colon, more than 100 µM; in the experiment on HL-60(TB) leukemia it was 37 µM. The TGI in the experiment with HOP-62 NSCLC was more than 100 µM; with LOX IMVI melanoma, 39.5 µM; with MCF7 breast, 83.1 µM; in the experiment on MDA-N it was more than 100 µM; in the experiment on NCI-H23 lung it was more than 100 µM; in the experiment with OVCAR-5 ovarian, more than 100 µM. Besides, the TGI in the experiment with OVCAR-8 ovarian is more than 100 µM; in the experiment on SK-MEL-5 melanoma, 40.4 µM; in the experiment with SR leukemia, more than 100 µM; in the experiment with SW-620 colon it was more than 100 µM; in the experiment on TK-10 renal, more than 100 µM.
